Values quoted from earlier work in US20030073069A1, “Drug rescue by redesign of ADMET/PK properties” (priority 2001, published 2003).
Like-named read-outs stand apart in the source and are kept apart here.

Legend:
[1] = FIG. 8
P450 [2] = conditions: induction of a P450
P450 [3] = test system: P450
[4] = development for memory enhancement abandoned
CYP 3A4 = CYP 3A4 (Homo sapiens, UniProt P08684); conditions: indicates a reactive intermediate formed by CYP 3A4 metabolism
Sequence of CYP 3A4 (P08684 whole entry): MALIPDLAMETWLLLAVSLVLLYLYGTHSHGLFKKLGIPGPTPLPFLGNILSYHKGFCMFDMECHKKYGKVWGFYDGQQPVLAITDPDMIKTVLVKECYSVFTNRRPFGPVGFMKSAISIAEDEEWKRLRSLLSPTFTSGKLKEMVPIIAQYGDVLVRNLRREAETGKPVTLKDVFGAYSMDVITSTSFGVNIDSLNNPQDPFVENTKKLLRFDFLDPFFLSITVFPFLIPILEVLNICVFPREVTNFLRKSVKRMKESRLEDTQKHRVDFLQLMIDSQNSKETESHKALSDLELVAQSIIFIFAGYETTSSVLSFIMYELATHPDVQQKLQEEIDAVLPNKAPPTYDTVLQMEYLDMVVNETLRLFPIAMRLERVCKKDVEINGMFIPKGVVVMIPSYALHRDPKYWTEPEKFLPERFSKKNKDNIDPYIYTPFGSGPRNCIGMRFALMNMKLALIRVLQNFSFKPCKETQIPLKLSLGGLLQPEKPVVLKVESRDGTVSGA

| Compound | No. of currently known drug interactions that involve the compound, Induction (P450 [2]) | No. of currently known drug interactions that involve the compound, Inhibition (P450 [3]; inhibition of a P450) | also measured |
| --- | --- | --- | --- |
| CN(C)Cc1nnc2n1-c1ccc(Cl)cc1C(c1ccccc1)=NC2 [adinazolam] |  |  | bioavailability, experimentally observed [1]: low; half lives, experimentally observed [1]: short |
| Cc1ncc2n1-c1ccc(Cl)cc1C(c1ccccc1F)=NC2 [midazolam] | 3 |  | No. of currently known drug interactions that involve the compound, Inhibition (P450 [3]): 15; bioavailability, experimentally observed [1]: low; half lives, experimentally observed [1]: short |
| COC(=O)C1=C(C)NC(C)=C(C(=O)OCC(C)C)C1c1ccccc1[N+](=O)[O-] (stereo not drawn) [nisoldipine] | 4 | 3 |  |
| CNCCC=C1c2ccccc2CCc2ccccc21 [nortriptyline] | 11 | 4 |  |
| O=C1NC(=O)C(c2ccccc2)(c2ccccc2)N1 [phenytoin] | 1 | 4 |  |
| C[C@]12C=CC(=O)C=C1CC[C@@H]1[C@@H]2[C@@H](O)C[C@@]2(C)[C@H]1CC[C@]2(O)C(=O)CO [prednisolone] | 10 | 1 |  |
| Fc1ccccc1C1=NCC(=S)N(CC(F)(F)F)c2ccc(Cl)cc21 [quazepam] | 3 |  | No. of currently known drug interactions that involve the compound, Inhibition (P450 [3]): 7 |
| C=C[C@H]1C[N@@]2CC[C@H]1C[C@@H]2[C@@H](O)c1ccnc2ccc(OC)cc12 [quinidine] | 13 | 4 |  |
| C=CC[C@@H]1/C=C(\C)C[C@H](C)C[C@H](OC)[C@H]2O[C@@](O)(C(=O)C(=O)N3CCCC[C@H]3C(=O)O[C@H](/C(C)=C/[C@@H]3CC[C@@H](O)[C@H](OC)C3)[C@H](C)[C@@H](O)CC1=O)[C@H](C)C[C@@H]2OC [tacrolimus] | 3 | 4 |  |
| CCCCCNC(=N)N/N=C/c1c[nH]c2ccc(OC)cc12 [tegaserod] |  |  | ability to breach the Blood-Brain-Barrier, as found [4]: not to breach the Blood-Brain-Barrier |
| Cc1nnc2n1-c1ccc(Cl)cc1C(c1ccccc1Cl)=NC2 [triazolam] | 3 |  | No. of currently known drug interactions that involve the compound, Inhibition (P450 [3]): 15 |
| CC(CN(C)C)CN1c2ccccc2CCc2ccccc21 (stereo not drawn) [trimipramine] | 9 | 4 |  |
| Cc1c(C)c2c(c(C)c1O)CCC(C)(COc1ccc(CC3SC(=O)NC3=O)cc1)O2 (stereo not drawn) [troglitazone] |  |  | inhibition of CYP 3A4 (CYP 3A4): time and NADPH-dependent inhibition |
| CC(=O)CC(c1ccccc1)c1c(O)c2ccccc2oc1=O (stereo not drawn) [warfarin] | 2 | 12 |  |
| Cc1ccc(-c2nc3ccc(C)cn3c2CC(=O)N(C)C)cc1 [zolpidem] | 2 |  | No. of currently known drug interactions that involve the compound, Inhibition (P450 [3]): 2 |
